Series [1] concerns Enterococcus faecalis (ATCC29212). Description: Microtitre plate assay, IC90 determination (EFA 29212). The format is cell-based. Particulars: 90% inhibitory concentration for bacterial growth, 37° C., resazurin fluorescence; for IC90 EFA 29212: 24 hours; for IC90: Enterococcus faecalis, ATCC29212, 24 h. How it is done: (§1) The bacteria used in this study were grown overnight in flasks containing 100 ml Mueller-Hinton Broth (Becton Dickinson—cat. no. 275730) in sterile de-ionized water, with shaking, at 37° C. Stocks (0.5 ml/tube) were stored at −70° C. until use. Bacteria titrations were performed in microtiter plates and colony forming units (CFUs) were determined. In general, an inoculum level of approximately 100 CFUs was used for susceptibility testing.
(§2) Flat-bottom, sterile 96-well plastic microtiter plates were filled with 180 μl of sterile deionized water, supplemented with 0.25% BSA. Subsequently, stock solutions (7.8× final test concentration) of compounds were added in 45 μl volumes in column 2 Serial five-fold dilutions (45 μl in 180 μl) were made directly in the microtiter plates from column 2 to reach column 11. Untreated control samples with (column 1) and without (column 12) inoculum were included in each microtiter plate. Depending on the bacteria type, approximately 10 to 60 CFU per well of bacteria inoculum (100 TCID50), in a volume of 100 μl in 2.8× Mueller-Hinton broth medium, was added to the rows A to H, except column 12. The same volume of broth medium without inoculum was added to column 12 in row A to H. The cultures were incubated at 37° C. for 24 hours under a normal atmosphere (incubator with open air valve and continuous ventilation). At the end of incubation, one day after inoculation, the bacterial growth was quantitated fluorometrically. Therefore resazurin (0.6 mg/ml) was added in a volume of 20 μl to all wells 3 hours after inoculation, and the plates were re-incubated overnight. A change in colour from blue to pink indicated the growth of bacteria. The fluorescence was read in a computer-controlled fluorometer (Cytofluor Biosearch) at an excitation wavelength of 530 nm and an emission wavelength of 590 nm. The % growth inhibition achieved by the compounds was calculated according to standard methods. The IC90 (expressed in μg/ml) was defined as the 90% inhibitory concentration for bacterial growth.
Background: Alamar Blue is a resazurin reagent that responds to reducing activity.

The test system of series [2] is Pseudomonas aeruginosa (ATCC27853). Description: Microtitre plate assay, IC90 determination (PAE 27853). The format is cell-based. Particulars: 90% inhibitory concentration for bacterial growth, 37° C., resazurin fluorescence; for IC90 PAE 27853: 24 hours; for IC90: Pseudomonas aeruginosa, ATCC27853, 24 h. How it is done:
as §1, §2

The subject of series [3] is Streptococcus pneumoniae (ATCC6305). Description: Microtitre plate assay, IC90 determination (SPN 6305). The format is cell-based. Particulars: 90% inhibitory concentration for bacterial growth, 37° C., resazurin fluorescence; for IC90 SPN 6305: 24 hours; for IC90: Streptococcus pneumoniae, ATCC6305, 24 h. How it is done: as §1, §2
The subject of series [4] is Streptococcus pyogens (ATCC8668). Description: Microtitre plate assay, IC90 determination (SPY 8668). The format is cell-based. Particulars: 90% inhibitory concentration for bacterial growth, 37° C., resazurin fluorescence; for IC90 SPY 8668: 24 hours. The method, then:
as §1, §2

The test system of series [5] is Staphylococcus aureus (ATCC29213). Description: Microtitre plate assay, IC90 determination (STA 29213). The format is cell-based. Particulars: 90% inhibitory concentration for bacterial growth, 37° C., resazurin fluorescence; for IC90 STA 29213: 24 hours; for IC90: Staphylococcus aureus, ATCC29213, 24 h. How it is done: as §1, §2
In series [6] the test system is methicilline resistant Staphylococcus aureus (MRSA) (a clinical isolate from the University of Antwerp). Description: Microtitre plate assay, IC90 determination (STA RMETH). The format is cell-based. Particulars: 90% inhibitory concentration for bacterial growth, 37° C., 24 hours, resazurin fluorescence. How it is done:
as §1, §2

Values after ≈ are worked out from the molar mass of the structure shown.

Regarding `COc1nc2ccc(Br)cc2cc1C(c1ccccc1)C(O)(CCc1ccc(F)c(F)c1)CCN(C)C` (racemic) [Compound 51], the “IC90 EFA 29212” value in series [1] stood at 10.1 µg/mL (≈ 17.7 µM). Moreover, in series [2], the “IC90 PAE 27853” value was 9.0 µg/mL (≈ 15.8 µM). Moreover, in series [3], the “IC90 SPN 6305” value was found to be 0.4 µg/mL (≈ 0.702 µM). Moreover, the “IC90 SPY 8668” value in series [4] is 5.7 µg/mL (≈ 10 µM). For the same compound, the “IC90 STA 29213” value in series [5] is 1.8 µg/mL (≈ 3.16 µM). Further, the “IC90 STA RMETH” value in series [6] stood at 11.4 µg/mL (≈ 20 µM).
`COc1nc2ccc(C)cc2cc1C(c1ccccc1)C(O)(CCc1ccccc1)CCN(C)C` (stereo not drawn) [Compound 1] had a melting point of 142 °C. Moreover, the IC90 in series [1] stood at 37.2 µg/mL (≈ 79.4 µM). For the same compound, in series [2], it took 18.7 µg/mL (≈ 39.9 µM) to reach the 90% level (IC90). In addition, the IC90 in series [3] worked out at 1.9 µg/mL (≈ 4.05 µM). Besides, the “IC90 SPY 8668” value in series [4] came out at 7.4 µg/mL (≈ 15.8 µM). In series [5], this compound gave an IC90 of 9.4 µg/mL (≈ 20.1 µM).
With `COc1nc2cccc(Br)c2cc1C(c1ccccc1)C(O)(CCc1ccccc1)CCN(C)C` (stereo not drawn) [Compound 5], the melting point turned out to be 156 °C. The IC90 in series [1] was determined as 53.4 µg/mL (≈ 100 µM). The IC90 in series [2] was found to be 53.4 µg/mL (≈ 100 µM). In addition, in series [3], the “IC90 SPN 6305” value came to 4.8 µg/mL (≈ 9 µM). In addition, in series [4] (Streptococcus, ATCC8668, 24 h), the IC90 stood at 42.4 µg/mL (≈ 79.5 µM). The “IC90 STA 29213” value in series [5] is 23.8 µg/mL (≈ 44.6 µM).
`COc1nc2cccc(Br)c2cc1C(c1ccccc1)C(O)(CCc1ccccc1)CCN(C)C` (stereo not drawn) [Compound 6] had a melting point of 126 °C. In addition, in series [3], the “IC90 SPN 6305” value turned out to be 1.7 µg/mL (≈ 3.19 µM). For the same compound, the “IC90 STA 29213” value in series [5] worked out at 8.5 µg/mL (≈ 15.9 µM).
For the compound `COc1nc2ccc(Br)cc2cc1C(c1ccccc1)C(O)(CCc1cccc2ccccc12)CCN(C)C` (stereo not drawn) [Compound 7], the melting point was 206 °C. Besides, the “IC90 SPN 6305” value in series [3] was found to be 46.4 µg/mL (≈ 79.5 µM). For the same compound, the “IC90 STA 29213” value in series [5] amounted to 52.0 µg/mL (≈ 89.1 µM).
With `COc1nc2ccc(Cl)cc2cc1C(c1ccccc1)C(O)(CCc1ccccc1)CCN(C)C` (stereo not drawn) [Compound 9], the melting point is 172 °C. In series [3], this compound yielded an IC90 of 1.7 µg/mL (≈ 3.48 µM). The compound also returned an IC90 in series [5] of 24.5 µg/mL (≈ 50.1 µM).
As for `CSc1nc2ccc(Br)cc2cc1C(c1ccccc1)C(O)(CCc1ccccc1)CCN(C)C` (stereo not drawn) [Compound 10], the melting point worked out at 191 °C. In addition, the “IC90 SPN 6305” value in series [3] came out at 9.8 µg/mL (≈ 17.8 µM). In series [5], the IC90 turned out to be 13.8 µg/mL (≈ 25.1 µM).
As to `COc1nc2ccccc2cc1C(c1ccccc1)C(O)(CCc1ccccc1)CCN(C)C` (stereo not drawn) [Compound 12], the melting point stood at 122 °C. For the same compound, the IC90 in series [3] is 9.1 µg/mL (≈ 20 µM). The compound further had an IC90 in series [5] of 10.2 µg/mL (≈ 22.4 µM).
Turning to `COc1ccc(CCC(O)(CCN(C)C)C(c2ccc(Cl)cc2)c2cc3cc(Br)ccc3nc2OC)cc1` (stereo not drawn) [Compound 21], the melting point turned out to be 142 °C. The “IC90 EFA 29212” value in series [1] worked out at 1.9 µg/mL (≈ 3.18 µM). Moreover, the “IC90 PAE 27853” value in series [2] amounted to 1.9 µg/mL (≈ 3.18 µM). The “IC90 SPN 6305” value in series [3] came to 2.1 µg/mL (≈ 3.51 µM). Further, the “IC90 SPY 8668” value in series [4] is 1.9 µg/mL (≈ 3.18 µM). In addition, in series [5], the “IC90 STA 29213” value stood at 1.9 µg/mL (≈ 3.18 µM).
In the case of `CSc1nc2ccc(C)cc2cc1C(c1ccccc1)C(O)(CCc1ccccc1)CCN(C)C` (stereo not drawn) [Compound 29], the melting point was 180 °C. In series [3], the “IC90 SPN 6305” value stood at 7.7 µg/mL (≈ 15.9 µM). The “IC90 STA 29213” value in series [5] came out at 48.5 µg/mL (≈ 100 µM).
`CSc1nc2ccc(Br)cc2cc1C(c1ccc(Cl)cc1)C(O)(CCc1ccccc1)CCN(C)C` (stereo not drawn) [Compound 32] showed a melting point of 222 °C. Besides, in series [3], the “IC90 SPN 6305” value came to 2.1 µg/mL (≈ 3.6 µM). Also, in series [5], the “IC90 STA 29213” value is 9.3 µg/mL (≈ 15.9 µM).
On to `COc1nc2ccc(Br)cc2cc1C(c1ccccc1)C(O)(CCc1ccc(F)cc1)CCN1CCCCC1` (stereo not drawn) [Compound 34], for which the melting point turned out to be 194 °C. For the same compound, the “IC90 SPN 6305” value in series [3] worked out at 9.4 µg/mL (≈ 15.9 µM). For the same compound, in series [5], the “IC90 STA 29213” value came to 59.2 µg/mL (≈ 100 µM).
Consider `CNCCC(O)(CCc1ccc(F)cc1)C(c1ccccc1)c1cc2ccccc2nc1OC` (stereo not drawn) [Compound 37], for which the melting point is 134 °C. The compound further displayed an IC90 in series [3] of 0.3 µg/mL (≈ 0.654 µM). The compound also came in with an IC90 in series [5] of 2.9 µg/mL (≈ 6.32 µM).

As a reminder, the IC90 is the point of the concentration-response curve where the effect stands at 90%. Read a high IC90 as weaker potency. As usually defined, the melting point is the temperature, or range, at which the solid turns liquid.

Source of the values: patent US20130030017A1, “QUINOLINE DERIVATIVES AS ANTIBACTERIAL AGENTS” (priority 2005, published 2013).
